Columns and labels:
Vimentin 3 = experiment: Cell culture experiments after ET-1 treatment, Western blot; assay type: cell-based; settings: cell culture (DU145)
Experimental: Furthermore, cell culture experiments were conducted after ET-1 treatment over different time points and analyzed via Western blot the expression of the different proteins mentioned above. For the ET-1 ELISA and Vim3 ELISA 100 μl of serum was used. DU145 cells were cultured under normal conditions and treated with the substances mentioned. Cells were scratched before treatment. The ET-receptors were blocked 1 h before ET-1 stimulation. Immunofluorescence was performed on paraffin-embedded prostate cancer samples. This immunofluorescence has been carried out as described in Example 1 above. In addition to Vim3-specific antibodies, also Atg7- and pg3-specific primary antibodies have been used.

ET-1 = experiment: Western blot of nuclear extracts of treated MCF-7 breast cancer cells; assay type: cell-based; settings: nuclear extracts from breast cancer cells after Tamoxifen treatment
Experimental: (§1) The dependency of the overexpression of Vim3 due to ET-1 presence and after tamoxifen treatment was shown in cell culture experiments and analyzed via Western blot. The expression of Vim3and ET-1 was analyzed in paraffin-embedded tissue samples of patients with metastatic breast cancers after tamoxifen treatment. MCF-7 cells were cultured under normal conditions and treated with the mentioned substances. Tamoxifen treatment was performed 1 hour prior ET-1 or β-estradiol treatment. Nuclear extracts were isolated and analyzed via Western blot under standard conditions. A Proximity Ligation Assay (PLA) assay was performed according to the manufacturer's protocol. From cells after treatment, the mRNA was isolated and qRT-PCR was performed. Immunohistochemistry was performed according to standardized conditions.

Vim3 [1] = experiment: Vim3 expression analysis by qRT-PCR in treated MX-1 cells; assay type: cell-based; settings: combinational stimulation with Tam
Experimental: MCF-7 cells were cultured under normal conditions and treated with the mentioned substances. Tamoxifen treatment was performed 1 hour prior ET-1 or β-estradiol treatment. […] From cells after treatment, the mRNA was isolated and qRT-PCR was performed.

Vim3 [2] = experiment: Western blot with densitometry of Vim3 in total cell extract of stimulated MCF-7; assay type: cell-based; settings: combined Tam plus ET-1 pretreatment versus ET-1 alone, p<0.001
Experimental: WB with 20 μg non-precipitated total cell extract of stimulated MCF-7. The corresponding densitometric analysis of the present bands of a protein analysis on the WB membrane where the intense band of Vim3 (47 kDa) is striking as compared to the very faint band of GAPDH in the same sample is shown with ImageJ, where the background and the control had been subtracted.
Furthermore, the effect of Tam was studied with regard to its translational capacity for Vim3 after a combined Tam plus ET-1 pretreatment versus ET-1 alone. […] Tam upregulates Vim3.

Vim3 [3] = experiment: Immunohistochemistry of Vim3 in breast cancer specimens and metastases after tamoxifen treatment; assay type: in vivo, human
Experimental: as §1
Vim3 Expression in Invasive Ductal Breast Carcinoma, and Its Metastases From the pre-evaluation of breast cancer specimen via tissue-microarray it was known that ET-1 and Vim3 staining could be detected in tumor cells, while vimentin full length was only positive in the interstitial tissue. To analyze the expression of the newly described target gene Vim3 in more detail, its expression was investigated in […] biopsies and their respective resection specimens of breast cancer cases. […] In each biopsy, Vim3 was detected, either in nuclear (20/25; strong expression: 3+) and/or diffuse cytoplasmic (25/25) localization. After Tam treatment, seventeen respective resection specimens were still diffusely positive for Vim3, now mainly in a cytoplasmic localization (12/17), with nuclear localization additionally found in 5 specimens (5/17). In 4 cases, lymph node but no other metastases were reported (4/28). In contrast, 7 cases developed organ metastases (7/28), of which 3 had additional lymph node metastases.
The expression of Vim3 and ERB was investigated in resection specimens and their metastases. In a set of 8 cases positive for ERa after tam pretreatment, it was found again a diffuse cytoplasmic expression of Vim3. In addition, in […] metastases (pleura 2×, skin 2×, bone 3×, uterus 1×, liver 1×, soft tissue 1x) Vim3 was also expressed (cytoplasm: 12/12; additional nuclear expression 5/12). In 7 of the 12 metastases, a 3+ nuclear expression for ERB was found, which was in all investigated cases accompanied by Vim3 expression.

Vim3 [4] = experiment: Vim3 expression analysis by qRT-PCR in treated MCF-7 cells; assay type: cell-based; settings: combined pretreatment with tamoxifen and β-estradiol/ET-1, p<0.01
Excerpt: FIG. 25A-FIG. 25C show Vim3 expression analysis of treated MX-1 (FIG. 25A; FIG. 25B) and MCF-7 (FIG. 25C) cells by qRT-PCR analysis. […] In both diagrams the increase in Vim3 expression up to ca 700 RFU upon a combinational stimulation with Tam is decisive. Data shown is derived from quadruplicates from an independent experiment. *P<0.05, **P<0.01 and ***P<0.001.
as §1

[5] = breast cancer resection specimens, positive/total

CC[C@H](C)[C@H](NC(=O)[C@H](CC(=O)O)NC(=O)[C@H](CC(C)C)NC(=O)[C@H](Cc1c[nH]cn1)NC(=O)[C@@H]1CSSC[C@H](N)C(=O)N[C@@H](CO)C(=O)N[C@H]2CSSC[C@H](NC(=O)[C@H](CCC(=O)O)NC(=O)[C@H](CCCCN)NC(=O)[C@H](CC(=O)O)NC(=O)[C@H](CCSC)NC(=O)[C@H](CC(C)C)NC(=O)[C@H](CO)NC(=O)[C@H](CO)NC2=O)C(=O)N[C@@H](C(C)C)C(=O)N[C@@H](Cc2ccc(O)cc2)C(=O)N[C@@H](Cc2ccccc2)C(=O)N1)C(=O)N[C@H](C(=O)N[C@@H](Cc1c[nH]c2ccccc12)C(=O)O)[C@@H](C)CC [ET-1, Endothelin-1]
Vimentin 3 production after ET-1 treatment (Vimentin 3): produce more Vimentin 3

CC/C(=C(\c1ccccc1)c1ccc(OCCN(C)C)cc1)c1ccccc1 [tamoxifen]
ET-1 signal in the nuclear fraction (ET-1): ET-1 expression is triggered
ET-1 signal in the nuclear fraction (ET-1; listed as Tamoxifen): significant upregulation of the ET-1 signal in the nuclear fraction
Vim3 expression (qRT-PCR) (Vim3 [1]): ~700 RFU
formation of Vim3 protein (Western blot densitometry) (Vim3 [2]): highly statistically significant induced formation of Vim3
mastectomies with cytoplasmic Vim3 staining after Tam (Vim3 [3]; biopsies before Tam: nuclear positivity 19/21): 13/17
resection specimens with additional nuclear Vim3 localization after Tam treatment (Vim3 [3]; [5]): 5/17
resection specimens with cytoplasmic Vim3 localization after Tam treatment (Vim3 [3]; [5]): 12/17
Vim3 level in tamoxifen-treated tumors and metastases (Vim3 [3]; patients with metastatic breast cancers after tamoxifen treatment): an increase of Vim3 was found in both, the tumor as well as the metastases
mRNA Vim3 expression (Vim3 [4]): clear increase in mRNA Vim3 expression
